PMC6981392, “Characterization of a Maltase from an Early-Diverged Non-Conventional Yeast Blastobotrys adeninivorans” (International Journal of Molecular Sciences, 2019)
“Also recorded” adds a separate entry of the source. Like-named read-outs stand apart in the source and are kept apart here.

How the values were obtained:
BaAG2 [1] = target: T1, BaAG2 (Blastobotrys adeninivorans, UniProt Z9CO09ION3); assay: Substrate specificity of BaAG2 on 100 mM sugars and 1 mM pNPG; type: biochemical; conditions: 100 mM sugars, pH 6.5, 30 °C
T1 sequence (Z9CO09ION3 1-580): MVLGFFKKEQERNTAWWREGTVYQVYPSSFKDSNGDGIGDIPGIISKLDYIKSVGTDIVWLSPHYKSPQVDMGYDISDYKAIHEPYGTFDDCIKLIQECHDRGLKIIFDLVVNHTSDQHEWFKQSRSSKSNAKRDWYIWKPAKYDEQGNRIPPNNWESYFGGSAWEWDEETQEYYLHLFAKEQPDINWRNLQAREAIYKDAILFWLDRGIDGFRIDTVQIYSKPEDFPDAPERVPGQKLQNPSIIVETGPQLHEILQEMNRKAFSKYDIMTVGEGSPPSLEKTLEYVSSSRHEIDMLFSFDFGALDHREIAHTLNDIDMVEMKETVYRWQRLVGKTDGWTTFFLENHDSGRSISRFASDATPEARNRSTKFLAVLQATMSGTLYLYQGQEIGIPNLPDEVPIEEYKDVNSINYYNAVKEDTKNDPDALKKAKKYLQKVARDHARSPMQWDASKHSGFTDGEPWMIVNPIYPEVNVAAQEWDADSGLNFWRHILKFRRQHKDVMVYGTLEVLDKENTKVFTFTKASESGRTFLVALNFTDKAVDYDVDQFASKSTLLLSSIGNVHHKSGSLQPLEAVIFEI
Experimental: Hydrolysis of pNPG was assayed as in [16, 40] according to the release of p-nitrophenol. 100 mM K-phosphate buffer (pH 6.5) was used and reactions were conducted at 30 °C if not stated otherwise. The purified enzyme was unstable if diluted therefore 5 g/L bovine serum albumin (BSA) was added to the dilution buffer as a protein stabilizer to retain its full catalytic activity. […] The content of the released glucose was determined spectrophotometrically as in [16, 47]. The activities (µmoles of glucose released per minute per mg of protein; U/mg) were calculated from initial velocities of the reaction. For kinetic analysis, initial rates of p-nitrophenol or glucose release from substrates were measured at four to seven concentrations ranging from 0.1–3.0 mM for pNPG and 2.5–250 mM for di- and trisaccharides. At least three independent measurements for each substrate and concentration were made. BaAG2 content in reaction mixtures ranged from 0.02 to 3.5 µg/mL. […] The theoretical Mw value of 67,901 Da for the kcat calculation was computed in ExPASy Proteomics Server (http://expasy.org).

[2] = tested on: B. adeninivorans CBS 8244; set-up: method as in earlier work; conditions: CBS-KNAW culture collection; cited from earlier work
[3] = tested on: α-glucosidase of A. niger; set-up: method as in doi:10.1271/bbb1961.55.2327; conditions: on maltose; cited from earlier work
[4] = tested on: extracellular α-glucosidase of Schizosaccharomyces pombe; conditions: on maltose; cited from earlier work
BaAG2 [5] = target: T1, BaAG2; assay: Inhibition of pNPG hydrolysis by BaAG2
Experimental: (§1) 100 mM K-phosphate buffer (pH 6.5) was used and reactions were conducted at 30 °C if not stated otherwise. The purified enzyme was unstable if diluted therefore 5 g/L bovine serum albumin (BSA) was added to the dilution buffer as a protein stabilizer to retain its full catalytic activity. […] The content of the released glucose was determined spectrophotometrically as in [16, 47]. The activities (µmoles of glucose released per minute per mg of protein; U/mg) were calculated from initial velocities of the reaction. […] At least three independent measurements for each substrate and concentration were made.
The Ki values were calculated using enzyme kinetics module of the SigmaPlot (Systat Software, San Jose, CA, USA).

BaAG2 [6] = target: T1, BaAG2; assay: Differential scanning fluorimetry (DSF) thermostability of BaAG2 with ligands; type: binding; conditions: 2 µM BaAG2, unliganded Tm 51 °C; 100 mM fructose, 50 mM palatinose, 50 mM glucose, 5 mM Tris, 5 mM acarbose; HEPES pH 7.0
Experimental: The reaction was conducted in 50 mM 4-(2-hydroxyethyl)-1-piperazineethanesulfonic acid) (HEPES) buffer (pH 7.0) with 150 mM NaCl. […] At least two independent experiments were performed with two technical replicates.

B. adeninivorans = assay: Growth of B. adeninivorans on sugars (OD 600 nm); type: cell-based, Blastobotrys adeninivorans; conditions: YNB medium, 2 g/L sugar, 24 h, 37 °C
Experimental: Blastobotrys (Arxula) adeninivorans LS3 (CBS 8244) was kindly provided by Assoc. Prof. V. Passoth (SLU, Uppsala, Sweden). The yeast strain was grown on solid YPD medium (20 g/L peptone, 20 g/L glucose, 10 g/L yeast extract, 20 g/L agar) at 30 °C 24 h for harvesting the cells for genomic DNA extraction. E. coli DH5α (Thermo Fisher Scientific, Waltham, MA, USA) was used for DNA cloning and plasmid production. E. coli BL21 (DE3) was used for heterologous expression of BaAG2. The ability of B. adeninivorans to grow on sugars was assayed as in [12]. Yeast cells grown overnight on BD Difco YNB medium (Thermo Fisher Scientific, Waltham, MA, USA) without amino acids containing 2 g/L glucose were used as inoculum. […] The cells were incubated on Greiner 96-well flat-bottom transparent polystyrene microplates (Greiner Bio-One, Frickenhausen, Germany) in 200 µl under agitation for 24 h at 37 °C. Optical density of the culture at 600 nm was measured against inoculated medium without sugar at the beginning and end of the experiment using an Infinite M200 PRO microplate reader (Tecan Group Ltd., Männedorf, Switzerland) equipped with Tecan i-control v. 1.7 software from the same provider. Two independent experiments with two parallel measurements were conducted.

BaAG2 [7] = target: T1, BaAG2; assay: Kinetics of hydrolysis of pNPG and sugars by BaAG2; conditions: for Vmax ± SD / kcat ± SD / Km: substrate hydrolysis, pH 6.5, 30 °C; for kcat ± SD: calculated from Vmax with Mw 67,901 Da; for Km: read-out: Km ± SD
Experimental: as §1

BaAG2 [8] = target: T1, BaAG2; assay: TLC assay of panose hydrolysis by BaAG2; conditions: 50 mM panose, extended (22 h) reaction time
Experimental: The reaction samples were analyzed using TLC.
To visualize hydrolysis and polymerization products, the TLC analysis was conducted as in [16] on Silica Gel 60 F254 plates with concentrating zone (Merck, Darmstadt, Germany). 0.5 µl of the stopped reaction mixture were spotted onto the plate and sugars were separated with two runs in chloroform:acetic acid:water (6:7:1, v:v:v) [67]. For the analysis of products of polysaccharide degradation, 3 µl of the reaction mixtures were spotted. Sugars were visualized by immersion of the plates in aniline-diphenylamine reagent and subsequent heating of the dried plates at 100 °C [68].

BaAG2 [9] = target: T1, BaAG2; assay: Degradation of glucose polymers by BaAG2 (glucose release, TLC); type: biochemical; conditions: polysaccharide 5 g/L, 20 µg/mL enzyme
Experimental: Polysaccharide concentration in the reaction mixture was 5 g/L, and 20 µg/mL of the enzyme was used. At desired time points (2 h, 24 h, 74/96 h) aliquots were withdrawn and heated to stop the reaction. A negative control containing 20 µg/mL BSA instead of the enzyme was incubated alongside. Concentration of released glucose was measured as described above and 3 µl of the samples were analysed on TLC. Maltase from S. cerevisiae (ScMAL62), amyloglycosidase from Aspergillus niger (Sigma-Aldrich, Merck, Darmstadt, Germany) and α-amylase from Aspergillus oryzae (Sigma-Aldrich, Merck, Darmstadt, Germany) were reacted with tested glucose polymers for comparison.

OC[C@H]1O[C@H](O[C@H]2[C@H](O)[C@@H](O)C(O)O[C@@H]2CO)[C@H](O)[C@@H](O)[C@@H]1O (mixture of isomers) [Maltose]
hydrolysis by BaAG2 (BaAG2 [1]): could hydrolyze | assimilation by B. adeninivorans CBS 8244 [2]: assimilates | Catalytic constant (kcat) [3]: 144 s⁻¹ | kcat [4]: 709 s⁻¹

C[C@H]1O[C@H](O[C@H]2[C@H](O)[C@@H](O)[C@@H](O[C@H]3[C@H](O)[C@@H](O)C(O)O[C@@H]3CO)O[C@@H]2CO)[C@H](O)[C@@H](O)[C@@H]1N[C@H]1C=C(CO)[C@@H](O)[C@H](O)[C@H]1O (stereo partly shown) [Acarbose, reference compound]
Ki (BaAG2 [5]; read-out: Ki ± SD, values marked * are given in µM, pH 6.5, 30 °C): 0.83 ± 0.01 µM | Ki (BaAG2 [5]; read-out: Ki ± SD, values marked * are given in µM, pH 6.5, 30 °C, listed as acarbose): 0.8 µM

O=C(CO)[C@@H](O)[C@H](O)[C@H](O)CO [Fructose]
Inhibition Mode (BaAG2 [5]): Competitive

OC[C@H]1OC(O)[C@H](O)[C@@H](O)[C@@H]1O (stereo partly shown) [Glucose]
increase of Tm in the presence of a ligand (BaAG2 [6]): 4.4 °C | Inhibition Mode (BaAG2 [5]): Competitive

OC[C@H]1O[C@H](OC[C@H]2OC(O)[C@H](O)[C@@H](O)[C@@H]2O)[C@H](O)[C@@H](O)[C@@H]1O (stereo partly shown) [Isomaltose]
hydrolysis by BaAG2 (BaAG2 [1]): not hydrolyzed | hydrolysis by BaAG2 (BaAG2 [1]; listed as isomaltose): could not hydrolyze | growth of B. adeninivorans on sugar (B. adeninivorans): new growth substrates | Inhibition Mode (BaAG2 [5]): Competitive

OC[C@H]1O[C@@](CO)(O[C@H]2O[C@H](CO)[C@@H](O)[C@H](O)[C@H]2O)[C@@H](O[C@H]2O[C@H](CO)[C@@H](O)[C@H](O)[C@H]2O)[C@@H]1O [Melezitose]
hydrolysis by BaAG2 (BaAG2 [1]): could hydrolyze | assimilation by B. adeninivorans CBS 8244 [2]: assimilates | Vmax ± SD (BaAG2 [7]): 231.0 ± 31.8 µmol/mg/min | kcat ± SD (BaAG2 [7]): 261.4 ± 36.1 s⁻¹

OC[C@H]1O[C@H](OC[C@H]2OC(O)(CO)[C@@H](O)[C@@H]2O)[C@H](O)[C@@H](O)[C@@H]1O (stereo partly shown) [Palatinose]
hydrolysis by BaAG2 (BaAG2 [1]): not hydrolyzed; also recorded: could not hydrolyze | growth of B. adeninivorans on sugar (B. adeninivorans): new growth substrates

OC[C@H]1O[C@@](CO)(O[C@H]2O[C@H](CO)[C@@H](O)[C@H](O)[C@H]2O)[C@@H](O)[C@@H]1O [Sucrose, α-D-Glc-(1→2)-β-D-Fru]
hydrolysis by BaAG2 (BaAG2 [1]): could hydrolyze | assimilation by B. adeninivorans CBS 8244 [2]: assimilates

O=C(CO)[C@@H](O[C@H]1O[C@H](CO)[C@@H](O)[C@H](O)[C@H]1O)[C@H](O)[C@H](O)CO [Turanose]
hydrolysis by BaAG2 (BaAG2 [1]): could hydrolyze | growth of B. adeninivorans on sugar (B. adeninivorans): new growth substrates | Km (BaAG2 [7]): 45.2 ± 6 mM | Vmax ± SD (BaAG2 [7]): 190.1 ± 10.4 µmol/mg/min | kcat ± SD (BaAG2 [7]): 215.1 ± 11.9 s⁻¹

O=[N+]([O-])c1ccc(O[C@@H]2O[C@H](CO)[C@H](O)[C@H](O)[C@H]2O)cc1 [pNPG, p-nitrophenyl-α-D-glucopyranoside, reference compound]
hydrolysis by BaAG2 (BaAG2 [1]): could hydrolyze | Vmax (BaAG2 [7]): over 750 U/mg | Km (BaAG2 [7]): 0.76 ± 0.03 mM | Vmax ± SD (BaAG2 [7]): 751.3 ± 14.5 µmol/mg/min | kcat ± SD (BaAG2 [7]): 850.2 ± 16.4 s⁻¹

OC[C@H]1O[C@H](OC[C@H]2O[C@H](O[C@H]3[C@H](O)[C@@H](O)C(O)O[C@@H]3CO)[C@H](O)[C@@H](O)[C@@H]2O)[C@H](O)[C@@H](O)[C@@H]1O (stereo partly drawn) [panose, α-D-Glc-(1→6)-α-D-Glc-(1→4)-D-Glc]
hydrolysis by BaAG2 (BaAG2 [8]): not hydrolyzed

OC[C@H]1O[C@H](O[C@H]2O[C@H](CO)[C@@H](O)[C@H](O)[C@H]2O)[C@H](O)[C@@H](O)[C@@H]1O [trehalose]
assimilation by B. adeninivorans CBS 8244 [2]: assimilates

CO[C@H]1O[C@H](CO)[C@@H](O)[C@H](O)[C@H]1O [α-MG, α-methylglucoside, reference compound]
hydrolysis by BaAG2 (BaAG2 [1]): could not hydrolyze | hydrolysis by BaAG2 (BaAG2 [1]; listed as α-methylglucoside): not hydrolyzed | assimilation by B. adeninivorans CBS 8244 [2]: assimilates | Inhibition Mode (BaAG2 [5]): Competitive

Maltotriose
hydrolysis by BaAG2 (BaAG2 [1]): could hydrolyze | growth of B. adeninivorans on sugar (B. adeninivorans): new growth substrates

Maltulose
hydrolysis by BaAG2 (BaAG2 [1]): could hydrolyze | growth of B. adeninivorans on sugar (B. adeninivorans): new growth substrates | Km (BaAG2 [7]): 7.8 ± 1 mM | Vmax ± SD (BaAG2 [7]): 52.2 ± 1.8 µmol/mg/min | kcat ± SD (BaAG2 [7]): 59.1 ± 2.1 s⁻¹

amylopectin
glucose released (BaAG2 [9]; by 24 h): 0.1 g/L | glucose released (BaAG2 [9]; by 72 h): 0.3 g/L
